Results taken from ChEMBL document CHEMBL1201862, “PubChem BioAssay data set” (2004).
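Briefly, cells in 96-well plates were exposed to five compound concentrations for 48 h, and endpoints were estimated by linear interpolation. GI50 = concentration required for 50% inhibition of growth.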 Activity calls are given as the source filed them. Rule as the data show it: active = GI50 up to about 1.1 µM and inactive = higher.

Legend:
Assay in all cases: NCI anticancer screen, dose series, 48 h
[1] = tested on: K562
[2] = tested on: HL-60
[3] = tested on: HCC 2998
[4] = tested on: SW-620
[5] = tested on: SNB-19
[6] = tested on: NCI-H226
[7] = tested on: UACC-257
[8] = tested on: NCI-H23
[9] = tested on: SK-OV-3
[10] = tested on: M14
[11] = tested on: OVCAR-8
[12] = tested on: CCRF-CEM
[13] = tested on: 786-0
[14] = tested on: TK-10
[15] = tested on: SR

Structure (SMILES)	GI50 [1]	GI50 [2]	GI50 [3]	GI50 [4]	GI50 [5]	GI50 [6]	GI50 [7]	GI50 [8]	GI50 [9]	GI50 [10]	GI50 [11]	GI50 [12]	GI50 [13]	GI50 [14]	GI50 [15]
O=C(O)C12C3C4C1C1C2C3C41I (centres undefined)	> 100 µM (inactive)	> 100 µM (inactive)	> 100 µM (inactive)	> 100 µM (inactive)	> 100 µM (inactive)	> 100 µM (inactive)	> 100 µM (inactive)	> 100 µM (inactive)	> 100 µM (inactive)	> 100 µM (inactive)	> 100 µM (inactive)	> 100 µM (inactive)	> 100 µM (inactive)	> 100 µM (inactive)	–
CC(=O)NC(CCCNC(=O)OCc1ccccc1)C(=O)NCc1ccccc1 (centres undefined)	> 100 µM (inactive)	–	> 100 µM (inactive)	> 100 µM (inactive)	> 100 µM (inactive)	> 100 µM (inactive)	> 100 µM (inactive)	> 100 µM (inactive)	> 100 µM (inactive)	> 100 µM (inactive)	> 100 µM (inactive)	> 100 µM (inactive)	> 100 µM (inactive)	> 100 µM (inactive)	–
C=C1CC2C(=O)N(c3ccccc3)C(=O)C2CC1n1[nH]c(=O)n(Cc2ccccc2)c1=O (centres undefined)	> 100 µM (inactive)	> 100 µM (inactive)	> 100 µM (inactive)	> 100 µM (inactive)	> 100 µM (inactive)	> 100 µM (inactive)	> 100 µM (inactive)	> 100 µM (inactive)	> 100 µM (inactive)	> 100 µM (inactive)	> 100 µM (inactive)	> 100 µM (inactive)	> 100 µM (inactive)	> 100 µM (inactive)	> 100 µM (inactive)
COc1ccc(S(=O)(=O)N/N=C(\C)CN2C(=O)c3ccccc3C2=O)cc1OC	> 100 µM (inactive)	> 100 µM (inactive)	> 100 µM (inactive)	> 100 µM (inactive)	> 100 µM (inactive)	> 100 µM (inactive)	> 100 µM (inactive)	> 100 µM (inactive)	> 100 µM (inactive)	> 100 µM (inactive)	> 100 µM (inactive)	> 100 µM (inactive)	> 100 µM (inactive)	> 100 µM (inactive)	> 100 µM (inactive)
O=S(=O)(N/N=C\c1c2ccccc2[n+]([O-])c2ccccc12)c1ccc(Cl)cc1	48.2 µM (inactive)	> 100 µM (inactive)	> 100 µM (inactive)	> 100 µM (inactive)	53.3 µM (inactive)	30.3 µM (inactive)	> 100 µM (inactive)	85.5 µM (inactive)	> 100 µM (inactive)	> 100 µM (inactive)	> 100 µM (inactive)	> 100 µM (inactive)	43.5 µM (inactive)	> 100 µM (inactive)	–
S=c1c2ccccc2c(=S)n2n1CC=CC2	> 100 µM (inactive)	> 100 µM (inactive)	> 100 µM (inactive)	> 100 µM (inactive)	> 100 µM (inactive)	> 100 µM (inactive)	> 100 µM (inactive)	> 100 µM (inactive)	> 100 µM (inactive)	> 100 µM (inactive)	> 100 µM (inactive)	> 100 µM (inactive)	> 100 µM (inactive)	> 100 µM (inactive)	–
CCCCCCc1cc2c(C)c(C)c(=O)oc2cc1OCCCOc1cc2oc(=O)c(C)c(C)c2cc1CCCCCC	> 100 µM (inactive)	> 100 µM (inactive)	–	> 100 µM (inactive)	> 100 µM (inactive)	–	> 100 µM (inactive)	> 100 µM (inactive)	> 100 µM (inactive)	> 100 µM (inactive)	> 100 µM (inactive)	> 100 µM (inactive)	> 100 µM (inactive)	> 100 µM (inactive)	> 100 µM (inactive)
COc1ccccc1NC(=O)C(=O)C1C(=O)Nc2ccccc2[S+]1[O-] (centres undefined)	> 100 µM (inactive)	> 100 µM (inactive)	> 100 µM (inactive)	> 100 µM (inactive)	> 100 µM (inactive)	> 100 µM (inactive)	> 100 µM (inactive)	> 100 µM (inactive)	> 100 µM (inactive)	> 100 µM (inactive)	> 100 µM (inactive)	> 100 µM (inactive)	> 100 µM (inactive)	> 100 µM (inactive)	> 100 µM (inactive)
Cc1cc(=O)oc2c1cc(OCC(=O)OCCN1CCCCC1)c1occ(C)c12	> 100 µM (inactive)	> 100 µM (inactive)	> 100 µM (inactive)	> 100 µM (inactive)	> 100 µM (inactive)	> 100 µM (inactive)	> 100 µM (inactive)	> 100 µM (inactive)	–	> 100 µM (inactive)	> 100 µM (inactive)	> 100 µM (inactive)	> 100 µM (inactive)	> 100 µM (inactive)	–
N#CC1CCCCC1NC1(C#N)CCCCC1 (centres undefined)	> 100 µM (inactive)	> 100 µM (inactive)	> 100 µM (inactive)	> 100 µM (inactive)	> 100 µM (inactive)	> 100 µM (inactive)	> 100 µM (inactive)	> 100 µM (inactive)	> 100 µM (inactive)	> 100 µM (inactive)	> 100 µM (inactive)	> 100 µM (inactive)	> 100 µM (inactive)	> 100 µM (inactive)	–
COC(=O)C(C(=O)C(=O)Nc1ccccc1C)c1nc2ccc([N+](=O)[O-])cc2nc1O (centres undefined)	> 100 µM (inactive)	> 100 µM (inactive)	> 100 µM (inactive)	> 100 µM (inactive)	> 100 µM (inactive)	> 100 µM (inactive)	> 100 µM (inactive)	> 100 µM (inactive)	> 100 µM (inactive)	> 100 µM (inactive)	> 100 µM (inactive)	> 100 µM (inactive)	> 100 µM (inactive)	> 100 µM (inactive)	> 100 µM (inactive)
O=C1C(Cl)=C(Cl)C(=O)N1c1ccc(Cl)c(Cl)c1Cl	30.5 µM (inactive)	24.3 µM (inactive)	> 100 µM (inactive)	35.5 µM (inactive)	57.8 µM (inactive)	> 100 µM (inactive)	> 100 µM (inactive)	61.8 µM (inactive)	> 100 µM (inactive)	52.7 µM (inactive)	–	21.7 µM (inactive)	44.5 µM (inactive)	> 100 µM (inactive)	26.9 µM (inactive)
N/N=C(\c1nc2ccc(Cl)cc2nc1O)C(O)c1ccc(Cl)c(Cl)c1 (centres undefined)	> 100 µM (inactive)	> 100 µM (inactive)	> 100 µM (inactive)	59.2 µM (inactive)	> 100 µM (inactive)	> 100 µM (inactive)	> 100 µM (inactive)	> 100 µM (inactive)	> 100 µM (inactive)	> 100 µM (inactive)	72.6 µM (inactive)	> 100 µM (inactive)	80.7 µM (inactive)	> 100 µM (inactive)	> 100 µM (inactive)
NC(=O)COc1ccc(Br)cc1Br	> 100 µM (inactive)	> 100 µM (inactive)	–	> 100 µM (inactive)	> 100 µM (inactive)	> 100 µM (inactive)	> 100 µM (inactive)	> 100 µM (inactive)	> 100 µM (inactive)	> 100 µM (inactive)	> 100 µM (inactive)	–	> 100 µM (inactive)	–	> 100 µM (inactive)
Cc1ccc2nc3c(C(=O)NCCN(C)C)cccc3nc2c1	2.47 µM (inactive)	5.45 µM (inactive)	6.05 µM (inactive)	1.92 µM (inactive)	5.96 µM (inactive)	2.59 µM (inactive)	3.8 µM (inactive)	4.26 µM (inactive)	14.8 µM (inactive)	5.12 µM (inactive)	3.48 µM (inactive)	–	11.5 µM (inactive)	3.73 µM (inactive)	1.01 µM (active)
C/C=C1\CN2CCc3c([nH]c4ccccc34)C2CC1C(=O)OC (centres undefined)	> 322 µM (inactive)	> 32.2 µM (inactive)	> 322 µM (inactive)	> 322 µM (inactive)	> 322 µM (inactive)	> 322 µM (inactive)	> 322 µM (inactive)	> 322 µM (inactive)	> 322 µM (inactive)	–	> 322 µM (inactive)	> 322 µM (inactive)	> 322 µM (inactive)	> 322 µM (inactive)	> 322 µM (inactive)
O=c1/c(=C/c2ccco2)sc2nc3ccccc3n12	> 10 µM (inactive)	> 10 µM (inactive)	> 10 µM (inactive)	> 10 µM (inactive)	> 10 µM (inactive)	> 10 µM (inactive)	> 10 µM (inactive)	> 10 µM (inactive)	> 100 µM (inactive)	> 10 µM (inactive)	> 10 µM (inactive)	> 10 µM (inactive)	> 10 µM (inactive)	50 µM (inactive)	> 10 µM (inactive)
CC1(C)OC(C[C@]2(C#N)C[C@H](CCl)OC(C)(C)O2)C[C@@H](C[C@]2(C#N)C[C@H](CCl)OC(C)(C)O2)O1 (some centres undefined)	> 100 µM (inactive)	> 100 µM (inactive)	> 100 µM (inactive)	> 100 µM (inactive)	> 100 µM (inactive)	> 100 µM (inactive)	17.3 µM (inactive)	> 100 µM (inactive)	> 100 µM (inactive)	> 100 µM (inactive)	> 100 µM (inactive)	> 100 µM (inactive)	> 100 µM (inactive)	> 100 µM (inactive)	20 µM (inactive)
COC(=O)CC[C@@H](NC(=O)C(C)NC(=O)COC1C(O)C(COC(=O)CCCCCCCCCCNC(=O)c2ccc([N+](=O)[O-])c3[nH]c4cc(Br)ccc4c(=O)c23)OC(OCc2ccccc2)C1NC(C)=O)C(N)=O (some centres undefined)	44.4 µM (inactive)	23 µM (inactive)	22.5 µM (inactive)	> 100 µM (inactive)	94 µM (inactive)	25.1 µM (inactive)	> 100 µM (inactive)	> 100 µM (inactive)	> 100 µM (inactive)	61.4 µM (inactive)	> 100 µM (inactive)	> 100 µM (inactive)	> 100 µM (inactive)	> 100 µM (inactive)	42.6 µM (inactive)
